{"source": "patent US12448388B2", "about": "“PRMT5 inhibitors and uses thereof” (Gilead Sciences, Inc., priority 2023, dated 2025)", "system": "HCT116 MTAP-deleted cell lines", "test": "Cell viability assay (CellTiter-Glo, 7 days), HCT116 MTAP-deleted", "type": "cell-based", "details": "Homo sapiens, HCT-116, HCT116 MTAP-deleted, class symbols, read-out: CC50", "method_in_brief": "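HCT116 MTAP-deleted and wild-type cells exposed to serially diluted compound for 7 days at 37 °C, 5% CO2. Viability read by CellTiter-Glo luminescence; CC50 derived per line, with selectivity comparing WT to MTAP-deleted, limited solubility can inflate values marked *.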", "note": "Like-named read-outs stand apart in the source and are kept apart here."}
{"compound": "Nc1nc2cc(F)c(C(=O)N3CCC[C@@H]4Oc5cc(F)c(F)cc5[C@@H]43)cc2n2cncc12", "note": "(racemic) [Ff-101, Rac-(4-amino-7-fluoroimidazo[1,5-a]quinoxalin-8-yl)((4aS,9bS)-7,8-difluoro-3,4,4a,9b-tetrahydrobenzofuro[3,2-b]pyridin-1(2H)-yl)methanone]", "values": [{"measurement": "CC50", "setting": "cell viability", "result": "100 to 1000", "unit": "nM"}]}
{"compound": "CN(C(=O)c1cc2c(cc1F)nc(N)c1cncn12)[C@@H]1COc2cc(C#CC(C)(C)C#N)ccc21", "note": "[Ff-439, 4-amino-N-[(3S)-6-(3-cyano-3-methyl-but-1-ynyl)-2,3-dihydrobenzofuran-3-yl]-7-fluoro-N-methyl-imidazo[1,5-a]quinoxaline-8-carboxamide]", "values": [{"measurement": "CC50", "setting": "cell viability assay", "result": "< 100", "unit": "nM"}]}
{"compound": "CN(C(=O)c1cc2c(cc1F)nc(N)c1cncn12)C1CCCc2cc(Cl)ccc21", "note": "(stereo not drawn) [Ff-425, 4-amino-N-(6-chloro-1,2,3,4-tetrahydronaphthalen-1-yl)-7-fluoro-N-methylimidazo[1,5-a]quinoxaline-8-carboxamide]", "values": [{"measurement": "CC50", "setting": "cell viability assay", "result": "100 to 1000", "unit": "nM"}]}
{"compound": "Cc1ncn2c1c(N)nc1cnc(C(=O)N3CC[C@H]4C[C@@H]3c3cc(F)c(C(F)(F)F)cc3O4)cc12", "note": "[Ff-635, (4-amino-3-methylimidazo[1,5-a]pyrido[3,4-e]pyrazin-8-yl)((2S,6R)-8-fluoro-9-(trifluoromethyl)-3,4-dihydro-2H-2,6-methanobenzo[b][1,5]oxazocin-5(6H)-yl)methanone]", "values": [{"measurement": "CC50", "setting": "cell viability assay", "result": "< 100", "unit": "nM"}]}
{"compound": "CN(C(=O)c1cc2c(cc1F)nc(N)c1cncn12)[C@@H]1COc2cc(C34CC(C3)C4)ccc21", "note": "[Ff-444, 4-amino-N-[(3S)-6-(1-bicyclo[1.1.1]pentanyl)-2,3-dihydrobenzofuran-3-yl]-7-fluoro-N-methyl-imidazo[1,5-a]quinoxaline-8-carboxamide]", "values": [{"measurement": "CC50", "setting": "cell viability assay", "result": "< 100", "unit": "nM"}]}
{"compound": "Cc1ncn2c1c(N)nc1cc(Cl)c(C(=O)N3CCC[C@@H]4Oc5cc(C(F)(F)F)ncc5[C@@H]43)cc12", "note": "[Fg-19, (4-amino-7-chloro-3-methylimidazo[1,5-a]quinoxalin-8-yl)((4aS,9bS)-7-(trifluoromethyl)-3,4,4a,9b-tetrahydrofuro[3,2-b:4,5-c′]dipyridin-1(2H)-yl)methanone]", "values": [{"measurement": "CC50", "setting": "cell viability assay", "result": "< 100", "unit": "nM"}]}
{"compound": "Nc1nc2cc(F)c(C(=O)N3CCO[C@@H]4Cc5ccccc5[C@@H]43)cc2n2cncc12", "note": "(racemic) [Ff-36, Racemic(4-amino-7-fluoroimidazo[1,5-a]quinoxalin-8-yl)((4aS,9aR)-2,3,9,9a-tetrahydroindeno[2,1-b][1,4]oxazin-4(4aH)-yl)methanone]", "values": [{"measurement": "CC50", "setting": "cell viability", "result": "100 to 1000", "unit": "nM"}]}
{"compound": "Nc1nc2cc(F)c(C(=O)N3CC[C@H]4C[C@@H]3c3ccc(Cl)cc34)cc2n2cncc12", "note": "[Ff-603, (4-amino-7-fluoroimidazo[1,5-a]quinoxalin-8-yl)((1R,5S)-7-chloro-1,3,4,5-tetrahydro-2H-1,5-methanobenzo[c]azepin-2-yl)methanone]", "values": [{"measurement": "CC50", "setting": "cell viability assay", "result": "100 to 1000", "unit": "nM"}]}
{"compound": "Nc1nc2cc(F)c(C(=O)N3CC[C@H]4C[C@@H]3c3ccc(C(F)(F)F)nc34)cc2n2cncc12", "note": "(racemic) [Ff-90, Rac-(4-amino-7-fluoroimidazo[1,5-a]quinoxalin-8-yl)((5R,9S)-2-(trifluoromethyl)-5,7,8,9-tetrahydro-6H-5,9-methanopyrido[3,2-c]azepin-6-yl)methanone]", "values": [{"measurement": "CC50", "setting": "cell viability", "result": "100 to 1000", "unit": "nM"}]}
{"compound": "CC1(C)CN(C(=O)c2cc3c(cc2F)nc(N)c2cncn23)C(c2ccc(C(F)(F)F)cn2)CO1", "note": "(stereo not drawn) [Ff-513, (4-amino-7-fluoroimidazo[1,5-a]quinoxalin-8-yl)(2,2-dimethyl-5-(5-(trifluoromethyl)pyridin-2-yl)morpholino)methanone]", "values": [{"measurement": "CC50", "setting": "cell viability assay", "result": "< 100", "unit": "nM"}]}
{"compound": "Nc1nc2cc(F)c(C(=O)N3CCO[C@@H]4Cc5cc(-c6ccc(C(F)(F)F)nc6)ccc5[C@@H]43)cc2n2cncc12", "note": "[Ff-239, (4-amino-7-fluoroimidazo[1,5-a]quinoxalin-8-yl)((4aS,9aR)-7-(6-(trifluoromethyl)pyridin-3-yl)-2,3,9,9a-tetrahydroindeno[2,1-b][1,4]oxazin-4(4aH)-yl)methanone]", "values": [{"measurement": "CC50", "setting": "cell viability", "result": "< 100", "unit": "nM"}]}
{"compound": "C[C@H](C(N)=O)N(Cc1ccc(C(F)(F)F)cc1F)C(=O)c1cc2c(cc1F)nc(N)c1cncn12", "note": "[Ff-420, 4-amino-N-[(1R)-2-amino-1-methyl-2-oxo-ethyl]-7-fluoro-N-[[2-fluoro-4-(trifluoromethyl)phenyl]methyl]imidazo[1,5-a]quinoxaline-8-carboxamide]", "values": [{"measurement": "CC50", "setting": "cell viability assay", "result": "100 to 1000", "unit": "nM"}]}
{"compound": "Cn1cc(N(Cc2ccc(C(F)(F)F)cc2F)C(=O)c2cc3c(cc2F)nc(N)c2cncn23)cn1", "note": "[Ff-45, 4-amino-7-fluoro-N-(2-fluoro-4-(trifluoromethyl)benzyl)-N-(1-methyl-1H-pyrazol-4-yl)imidazo[1,5-a]quinoxaline-8-carboxamide]", "values": [{"measurement": "CC50", "setting": "cell viability", "result": "< 100", "unit": "nM"}]}
{"compound": "Nc1nc2cc(F)c(C(=O)N(Cc3ccc(C(F)(F)F)cc3F)c3cnn(C(F)F)c3)cc2n2cncc12", "note": "[Ff-291, 4-amino-N-(1-(difluoromethyl)-1H-pyrazol-4-yl)-7-fluoro-N-(2-fluoro-4-(trifluoromethyl)benzyl)imidazo[1,5-a]quinoxaline-8-carboxamide]", "values": [{"measurement": "CC50", "setting": "cell viability", "result": "< 100", "unit": "nM"}]}
{"compound": "Nc1nc2cc(F)c(C(=O)N3[C@@H](c4ccc(C(F)(F)F)cn4)CC[C@@H]4C[C@@H]43)cc2n2cncc12", "note": "(racemic) [Ff-293, Rac-(4-amino-7-fluoroimidazo[1,5-a]quinoxalin-8-yl)((1S,3R,6R)-3-(5-(trifluoromethyl)pyridin-2-yl)-2-azabicyclo[4.1.0]heptan-2-yl)methanone]", "values": [{"measurement": "CC50", "setting": "cell viability", "result": "100 to 1000", "unit": "nM"}]}
{"compound": "C[C@@H]1OC[C@@H](N(C)C(=O)c2ccc3nc(N)c4cncn4c3c2)c2ccc(C(F)(F)F)cc21", "note": "(racemic) [Ff-41, Trans-4-amino-N-methyl-N-(trans-1-methyl-7-(trifluoromethyl)isochroman-4-yl)imidazo[1,5-a]quinoxaline-8-carboxamide]", "values": [{"measurement": "CC50", "setting": "cell viability", "result": "< 100", "unit": "nM"}]}
{"compound": "C[C@H]1CN(C(=O)c2cc3c(cn2)nc(N)c2cncn23)[C@H]2c3ccc(OC(F)(F)F)cc3C[C@H]2O1", "note": "(single isomer, unassigned) [Ff-186]", "values": [{"measurement": "CC50", "setting": "cell viability", "result": "< 100", "unit": "nM"}]}
{"compound": "Cc1cc2c(cc1Br)[C@H](N(C)C(=O)c1cc3c(cc1F)nc(N)c1cncn13)CO2", "note": "[Ff-460, (S)-4-amino-N-(5-bromo-6-methyl-2,3-dihydrobenzofuran-3-yl)-7-fluoro-N-methylimidazo[1,5-a]quinoxaline-8-carboxamide]", "values": [{"measurement": "CC50", "setting": "cell viability assay", "result": "< 100", "unit": "nM"}]}
{"compound": "Nc1nc2cc(F)c(C(=O)N(Cc3ccc(C(F)(F)F)cn3)c3cnn(-c4ccccc4)c3)cc2n2cncc12", "note": "[Ff-315, 4-amino-7-fluoro-N-(1-phenyl-1H-pyrazol-4-yl)-N-((5-(trifluoromethyl)pyridin-2-yl)methyl)imidazo[1,5-a]quinoxaline-8-carboxamide]", "values": [{"measurement": "CC50", "setting": "cell viability", "result": "< 100", "unit": "nM"}]}
{"compound": "CN(C(=O)c1ccc2nc(N)c3cncn3c2c1)C1CCc2nc(C(F)(F)F)ccc21", "note": "(stereo not drawn) [Ff-266, 4-amino-N-methyl-N-(2-(trifluoromethyl)-6,7-dihydro-5H-cyclopenta[b]pyridin-5-yl)imidazo[1,5-a]quinoxaline-8-carboxamide]", "values": [{"measurement": "CC50", "setting": "cell viability", "result": "100 to 1000", "unit": "nM"}]}
{"compound": "Nc1nc2cc(F)c(C(=O)N3CC(C(F)(F)F)OCC3c3ccc(C(F)(F)F)cn3)cc2n2cncc12", "note": "(stereo not drawn) [Ff-401]", "values": [{"measurement": "CC50", "setting": "cell viability assay", "result": "100 to 1000", "unit": "nM"}]}
{"compound": "COc1ccc2c(n1)CCC2N(C)C(=O)c1cc2c(cc1F)nc(N)c1cncn12", "note": "(stereo not drawn) [Ff-271, 4-amino-7-fluoro-N-(2-methoxy-6,7-dihydro-5H-cyclopenta[b]pyridin-5-yl)-N-methylimidazo[1,5-a]quinoxaline-8-carboxamide]", "values": [{"measurement": "CC50", "setting": "cell viability", "result": "100 to 1000", "unit": "nM"}]}
{"compound": "CN(C(=O)c1cc2c(cc1F)nc(N)c1cncn12)[C@@H]1COc2cc(C3=CCOC3(C)C)ccc21", "note": "[Ff-485, (S)-4-amino-N-(6-(2,2-dimethyl-2,5-dihydrofuran-3-yl)-2,3-dihydrobenzofuran-3-yl)-7-fluoro-N-methylimidazo[1,5-a]quinoxaline-8-carboxamide]", "values": [{"measurement": "CC50", "setting": "cell viability assay", "result": "< 100", "unit": "nM"}]}
{"compound": "Nc1nc2cc(F)c(C(=O)N3CCC4(CCc5ccccc54)C3)cc2n2cncc12", "note": "(stereo not drawn) [Ff-670, (4-amino-7-fluoroimidazo[1,5-a]quinoxalin-8-yl)(2,3-dihydrospiro[indene-1,3′-pyrrolidin]-1′-yl)methanone]", "values": [{"measurement": "CC50", "setting": "cell viability assay", "result": "100 to 1000", "unit": "nM"}]}
{"compound": "Cc1ncn2c1c(N)nc1cc(F)c(C(=O)N3C[C@@H](F)C[C@@H]4Oc5cc(C(F)(F)F)ccc5[C@@H]43)cc12", "note": "[Ff-659, (4-amino-7-fluoro-3-methylimidazo[1,5-a]quinoxalin-8-yl)((3S,4aS,9bS)-3-fluoro-7-(trifluoromethyl)-3,4,4a,9b-tetrahydrobenzofuro[3,2-b]pyridin-1(2H)-yl)methanone]", "values": [{"measurement": "CC50", "setting": "cell viability assay", "result": "< 100", "unit": "nM"}]}
{"compound": "[2H]C([2H])([2H])[C@@H]1CN(C(=O)c2cc3c(cc2F)nc(N)c2cncn23)[C@H]2c3ccc(C(F)(F)F)cc3C[C@H]2O1", "note": "(single isomer, unassigned) [Ff-638]", "values": [{"measurement": "CC50", "setting": "cell viability assay", "result": "< 100", "unit": "nM"}]}
{"compound": "C[C@H](C#N)N(Cc1ccc(C(F)(F)F)cc1F)C(=O)c1cc2c(cc1F)nc(N)c1cncn12", "note": "[Ff-418, 4-amino-N-[(1R)-1-cyanoethyl]-7-fluoro-N-[[2-fluoro-4-(trifluoromethyl)phenyl]methyl]imidazo[1,5-a]quinoxaline-8-carboxamide]", "values": [{"measurement": "CC50", "setting": "cell viability assay", "result": "100 to 1000", "unit": "nM"}]}
{"compound": "CN(C(=O)c1ccc2nc(N)c3cncn3c2c1)[C@@H](c1ccc(C(F)(F)F)cc1Cl)C(F)F", "note": "[Ff-570, (S)-4-amino-N-(1-(2-chloro-4-(trifluoromethyl)phenyl)-2,2-difluoroethyl)-N-methylimidazo[1,5-a]quinoxaline-8-carboxamide]", "values": [{"measurement": "CC50", "setting": "cell viability assay", "result": "100 to 1000", "unit": "nM"}]}
{"compound": "C[C@H]1CN(C(=O)c2cc3c(cc2F)nc(N)c2cncn23)[C@H]2c3ccc(C#N)cc3C[C@H]2O1", "note": "[Ff-578, (2S,4aS,9aR)-4-(4-amino-7-fluoroimidazo[1,5-a]quinoxaline-8-carbonyl)-2-methyl-2,3,4,4a,9,9a-hexahydroindeno[2,1-b][1,4]oxazine-7-carbonitrile]", "values": [{"measurement": "CC50", "setting": "cell viability assay", "result": "< 100", "unit": "nM"}]}
{"compound": "COc1ccc2c(c1)CO[C@H]1CCN(C(=O)c3cc4c(cc3F)nc(N)c3cncn34)[C@@H]21", "note": "(racemic) [Ff-67, Rac-(4-amino-7-fluoroimidazo[1,5-a]quinoxalin-8-yl)((3aS,9bS)-7-methoxy-3,3a,5,9b-tetrahydroisochromeno[4,3-b]pyrrol-1(2H)-yl)methanone]", "values": [{"measurement": "CC50", "setting": "cell viability", "result": "100 to 1000", "unit": "nM"}]}
